Here are results for 7 molecules from PMC5505648 (Bioorganic & medicinal chemistry, 2017).

Data set [1] is described as follows: Oral bioavailability / serum pharmacokinetics study in mice. The class given is in vivo. Conditions: C57Bl/6, mouse; for clearance: iv.
A short description of data set [2]: Ester-to-amide. In kind it is physicochemical. The conditions noted are these: for Rearrangement of ester to amide in dosing vehicle: 50% DMSO in saline; for Rearrangement of ester to amide product: polar, protic solvents / aqueous HPLC conditions.
Data set [3] has as its system Hairless (Hr) gene. The data set can be described thus: Brain expression of Hairless. The class given is in vivo. The conditions noted are these: mice, brain Hr expression ED50.
For data set [4] the following is noted: in vivo.

Regarding `Cc1cc(OCC(=O)O)cc(C)c1Cc1ccc(O)c(C(C)C)c1` [Compound 1, Sobetirome, reference compound], the clearance in data set [1] (serum, 3.05 μmol/kg) was 8 mL/min/kg.

For the molecule `Cc1cc(OCC(=O)OC2(C(F)(F)F)CNC2)cc(C)c1Cc1ccc(O)c(C(C)C)c1` [Compound 15], in data set [2], the “Rearrangement of ester to amide in dosing vehicle” value (shortened to “Rearrangement … in dosing vehicle”) is “do not rearrange to amides” and the “Rearrangement of ester to amide product” value is recorded as “did not display rearrangement to the amide product”.

As to `Cc1cc(OCC(=O)O[C@@H](C)CN)cc(C)c1Cc1ccc(O)c(C(C)C)c1` [Compound 3, (S)-1-aminopropan-2-yl 2-(4-(4-hydroxy-3-isopropylbenzyl)-3,5-dimethylphenoxy)acetate], in data set [1] (in vivo), the “Amount of sobetirome from cleavage of 3 in blood, oral vs intravenous dosing” value was 2.4 fold and the clearance turned out to be 28 mL/min/kg. In addition, the “Fold increase in potency compared to sobetirome” value in data set [3] is listed as about 2 fold. Besides, in data set [2] (aqueous HPLC sample, approximately 30 minutes later), the “Species in chromatogram on re-sampling the same solution” value was “showed only the amide 3b”. Also, the “Fraction of ester converted to amide” value in data set [2] (aqueous HPLC sample/run conditions, within 5 minutes of running) is “approximately 25%”. Also, in data set [4] (male, C57Bl/6, mouse), the “Fold increase of sobetirome exposure (AUC) in brain vs equimolar sobetirome” value is listed as ~ 2 fold, the “Fold reduction of parent drug exposure in heart vs equimolar sobetirome” value was ~ 3 fold, the “Fold reduction of parent drug exposure in kidney vs equimolar sobetirome” value is reported as ~ 2 fold and the “Fold reduction of parent drug exposure in liver vs equimolar sobetirome” value is given as ~ 2 fold. The “Fold reduction of parent drug exposure in serum vs equimolar sobetirome” value in data set [4] (male, C57Bl/6, mouse) is ~ 3.5 fold. In addition, the “Time of Cmax / Tmax in all tissues analyzed” value in data set [4] (mouse, ip) is 15 to 30 min.

Take `CNCC(C)OC(=O)COc1cc(C)c(Cc2ccc(O)c(C(C)C)c2)c(C)c1` (centres unmarked) [Compound 7, 1-(methylamino) propan-2-yl 2-(4-(4-hydroxy-3-isopropylbenzyl)-3,5-dimethylphenoxy) acetate]: the “Rearrangement of ester to amide product” value in data set [2] is “freely rearrange to their corresponding tertiary amides”.

Consider “2-(methylamino)ethyl 2-(4-(4-hydroxy-3-methylbenzyl)-3,5-dimethylphenoxy)acetate [Compound 13]”, for which the “Rearrangement of ester to amide product” value in data set [2] is “freely rearrange to their corresponding tertiary amides”.

Turning to `CNCC(OC(=O)COc1cc(C)c(Cc2ccc(O)c(C(C)C)c2)c(C)c1)C(C)C` (centres unmarked) [Compound 12, 3-methyl-1-(methylamino)butan-2-yl 2-(4-(4-hydroxy-3-isopropylbenzyl)-3,5-dimethylphenoxy)acetate], in data set [2], the “Rearrangement … in dosing vehicle” value is reported as “do not rearrange to amides” and the “Rearrangement of ester to amide product” value was “did not display rearrangement to the amide product”.

Consider `Cc1cc(OCC(=O)OC(CN)C(C)C)cc(C)c1Cc1ccc(O)c(C(C)C)c1` (centres unmarked) [Compound 11, 1-amino-3-methylbutan-2-yl 2-(4-(4-hydroxy-3-isopropylbenzyl)-3,5-dimethylphenoxy)acetate], for which, in data set [2], the “Rearrangement … in dosing vehicle” value was “do not rearrange to amides” and the “Rearrangement of ester to amide product” value is given as “did not display rearrangement to the amide product”.
